In one data set the test system is SW-872 cells. In words: Cell cycle distribution by flow cytometry, DAPI staining. In kind it is cell-based, human. Particulars: SW-872, IC25 concentration, 18 h. In general terms: In flow cytometry, cells or beads pass a laser one at a time.
The nature of a further data set: Solubility in water. Format: physicochemical.

SMILES strings stand for the structures. Where “and” joins values, the source holds several entries; their conditions need not be identical. Identical values can stand only once. Like-named read-outs stand apart in the source and are kept apart here.

Take `O=S(=O)([O-])c1ccc(O)c(C=NNC(=S)Nc2cccc3ccccc23)c1.[Na+]` [L, sodium-4-hydroxy-3-((2-(naphthalene-1-ylcarbamothioyl)hydrazono)methyl)benzenesulfonate]: in the data set with SW-872 cells, the “Cell cycle distribution, S” value turned out to be 32.94. Moreover, in the data set on SW-872 cells, the “effect on cell cycle” value is “cell cycle arrest in the S phase”. The solubility in water was 4420 µg/mL and 4400 µg/mL in “Solubility in water”; 1600 µg/mL in the data set “Solubility in water” (listed as L^Cu); 2500 µg/mL in the data set “Solubility in water” (listed as L^Fe); 3200 µg/mL in the data set “Solubility in water” (listed as L^Mn); 1400 µg/mL in the data set “Solubility in water” (listed as L^Ni); 2400 µg/mL in “Solubility in water” (listed as L^Zn).

(Values after article PMC12852919 (Scientific Reports, 2025).)
